# Measurements published in patent US20150152035A1, “COSMETIC USE OF SALICYLIC ACID DERIVATIVES” (Avon Products, Inc,, priority 2013, published 2015).
# Legend:
# [1] = Skin PAMPA parallel artificial membrane penetration assay; assay type: in vitro ADME; settings: donor pH 4.25, acceptor pH 7.4, 50 nM, two hours incubation; relative to salicylic acid
# Method: Several salicylic acid derivatives were assessed for their ability to penetrate skin. Each of the compounds was formulated in an aqueous buffer, with a final pH of 4.25 at a concentration of 50 nM. The skin permeability of the compounds was measured using a high throughput transdermal permeability model, the parallel artificial membrane penetration assay (Skin PAMPA™), which uses a skin mimetic artificial membrane that simulates the barrier properties of the strateum corneum.
# Briefly, the Skin PAMPA™ assay is a sandwich assay that utilizes two 96-well plate assemblies, one of which acts as the acceptor chambers (comprising a buffer), and one of which acts as the donor chambers (comprising a buffer and the compound to be tested). […] After an incubation period, the donor and acceptor chambers are analyzed for the amount of compound present.
# In the current experiments, the acceptor chamber included an acceptor solution made from Prisma™ HT buffer solution (Pion, Inc.) that was adjusted to a pH of 7.4±0.05 using 1.0 M NaOH, and the donor chamber included a donor solution made from Prisma™ HT buffer solution (Pion, Inc.) that was adjusted to a pH of 4.25±0.05 using 1.0 M NaOH. […] Effective permeability was then calculated by the same method as Sinko et al., Eur. J. Pharm. […]
# [2] = biological target: T1, recombinant human (rh) KLK5 protease (Homo sapiens, UniProt Q9Y337); test: Enzymatic activity of Kallikrein 5 (KLK5), fluorogenic peptide substrate Boc-V-P-R-AMC; assay type: biochemical; settings: for KLK5 activity compared to that of salicylic acid: relative to salicylic acid; for stimulation of KLK5 enzymatic activity: rhKLK5 pre-incubated with test compound 60 seconds, rate of substrate cleavage
# T1 construct: purchased R&D Systems 1108-SE
# T1 sequence (Q9Y337 23-293): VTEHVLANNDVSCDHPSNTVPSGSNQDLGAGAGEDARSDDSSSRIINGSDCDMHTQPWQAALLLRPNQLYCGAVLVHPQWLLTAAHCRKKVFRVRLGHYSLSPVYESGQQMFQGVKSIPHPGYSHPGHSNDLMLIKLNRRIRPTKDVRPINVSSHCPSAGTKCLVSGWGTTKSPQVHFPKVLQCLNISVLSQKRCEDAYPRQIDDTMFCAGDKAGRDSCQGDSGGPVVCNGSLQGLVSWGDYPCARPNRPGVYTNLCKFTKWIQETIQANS
# From the text: In the stratum corneum, skin's outermost layer, cell-to-cell cohesion depends primarily on proteins known as the corneodesmosomes. During skin remodeling and renewal dead cells are shed from the skin surface by the action of native proteases that break down the corneodesmosomes. […] Hypothetically, up-regulation of the activities of these proteases using different active candidates could be utilized to increase the rate of shedding of dead skin, thus providing a natural means for skin exfoliation. To this end, the enzymatic activity of a member of the KLK family, recombinant human (rh) KLK5, was monitored following pre-incubation with actives and measuring the rate of peptide bond cleavage of a synthetic substrate.
# Enzymatic activity of KLK5 was measured by incubating recombinant human (rh) KLK5 protease (R&D Systems, Cat No. 1108-SE) with a specific fluorogenic peptide substrate Boc-V-P-R-AMC (R& D Systems, Cat No. ES011). The substrate is conjugated to a quenched fluorescent group. Upon cleavage of the adjacent peptide bond, the fluorescent signal is released, resulting in a measurable emission at 535 nm when excited at 340 nm wavelength. Increase in fluorescence reading indicates an increase in rhKLK5 activity. The test compounds were reacted with recombinant rhKLK5 protease for 60 seconds followed by addition of Boc-V-P-R-AMC Fluorogenic Peptide Substrate. After 60 seconds of incubation, fluorescence was measured at 340 nm (Excitation wavelength) and […] (Emission wavelength) every 1 minute for 7 minutes. Rate (kinetics) of enzyme activity was calculated as follows: Rate of enzyme activity=Change of fluorescent reading (after background correction)/Change of reaction time (min). Percent change of activity due to a test compound was calculated by comparing rate of enzyme activity in the presence of the test compound to that of a control without the test compound and statistical significance was calculated using a t-test. Additionally, the rate of activity of the compounds was compared to that of salicylic acid.
Structure (SMILES),skin permeability (effective permeability) [1],KLK5 activity compared to that of salicylic acid [2],stimulation of KLK5 enzymatic activity [2]
"CC(C)c1cc(O)c(C(=O)O)c(C(C)C)c1 [Compound A, 4,6-diisopropyl salicylic acid]",highest permeability,superior KLK5 activity as compared to salicylic acid,potent stimulators of KLK5
"CC(C)(C)c1cc(O)c(C(=O)O)c(C(C)(C)C)c1 [Compound B, 4,6-di-tert-butyl salicylic acid]",highest permeability,superior KLK5 activity as compared to salicylic acid,potent stimulators of KLK5
